Drawing on US20210395239A1 (Hoffmann-La Roche Inc., priority 2018, published 2021), this text covers IC50 for ten compounds.

For this assay, the target named is T1, hTLR9 (Homo sapiens, UniProt Q9NR96).
T1 sequence (Q9NR96 26-1032): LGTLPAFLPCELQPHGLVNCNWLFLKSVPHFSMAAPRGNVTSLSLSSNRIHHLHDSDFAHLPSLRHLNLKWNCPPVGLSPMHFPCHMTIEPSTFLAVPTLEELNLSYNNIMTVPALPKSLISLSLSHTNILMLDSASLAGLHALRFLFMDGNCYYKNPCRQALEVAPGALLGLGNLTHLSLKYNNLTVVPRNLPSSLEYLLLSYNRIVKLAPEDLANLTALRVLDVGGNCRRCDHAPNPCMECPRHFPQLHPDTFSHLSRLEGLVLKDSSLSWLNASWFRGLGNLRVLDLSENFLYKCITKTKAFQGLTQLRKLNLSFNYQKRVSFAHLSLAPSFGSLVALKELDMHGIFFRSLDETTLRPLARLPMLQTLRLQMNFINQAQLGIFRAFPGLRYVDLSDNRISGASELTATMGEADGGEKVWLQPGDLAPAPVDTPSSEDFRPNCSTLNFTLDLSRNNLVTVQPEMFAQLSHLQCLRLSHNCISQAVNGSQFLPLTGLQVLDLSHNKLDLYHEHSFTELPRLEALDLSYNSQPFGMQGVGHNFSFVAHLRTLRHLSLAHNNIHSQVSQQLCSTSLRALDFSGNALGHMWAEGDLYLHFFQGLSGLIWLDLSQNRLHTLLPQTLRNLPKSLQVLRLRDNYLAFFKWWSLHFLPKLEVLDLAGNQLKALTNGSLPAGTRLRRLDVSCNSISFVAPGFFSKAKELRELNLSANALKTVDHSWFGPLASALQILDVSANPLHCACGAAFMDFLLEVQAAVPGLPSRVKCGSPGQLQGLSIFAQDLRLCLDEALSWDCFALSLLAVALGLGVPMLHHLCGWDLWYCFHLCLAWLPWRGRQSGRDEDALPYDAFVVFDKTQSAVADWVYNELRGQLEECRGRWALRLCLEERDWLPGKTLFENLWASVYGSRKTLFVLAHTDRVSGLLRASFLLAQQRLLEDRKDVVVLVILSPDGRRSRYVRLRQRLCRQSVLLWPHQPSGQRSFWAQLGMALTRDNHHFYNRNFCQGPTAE
The experiment in a line: HEK293-Blue-hTLR-9 cells assay (SEAP reporter, ODN2006 stimulation). The assay is classed as cell-based. Conditions: HEK293-Blue-hTLR9 cells, ODN2006, 20 hrs; read-out: HEK/hTLR9 IC50. Also noted: host or cells: HEK293 (HEK-Blue hTLR9). The method in brief:
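Antagonism read as lowered SEAP reporter absorbance (620–655 nm, QUANTI-Blue, 2 h, 37 °C) in supernatants. Before that, ODN2006-stimulated HEK293-Blue cells stably expressing human TLR9 were exposed to compound dilutions at 1% final DMSO for 20 h at 37 °C.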
Consider `C[C@@H]1CN(c2ccc(C#N)n3ncc(F)c23)C[C@H](CN2CCN(c3ccc(N4C[C@H]5NCCO[C@@H]5C4)nc3)CC2)O1` [Example 168, 4-[(2S,6R)-2-[[4-[6-[(4aR,7aR)-3,4,4a,5,7,7a-hexahydro-2H-pyrrolo[3,4-b][1,4]oxazin-6-yl]-3-pyridyl]piperazin-1-yl]methyl]-6-methyl-morpholin-4-yl]-3-fluoro-pyrazolo[1,5-a]pyridine-7-carbonitrile], for which the IC50 worked out at 116 nM.

Take `C[C@@H]1CN(c2ccc(C#N)n3ncc(F)c23)C[C@H](CN2CCN(c3ccc(N4CC5(CNCCO5)C4)nc3)CC2)O1` [Example 169, 3-fluoro-4-[(2R,6S)-2-methyl-6-[[4-[6-(5-oxa-2,8-diazaspiro[3.5]nonan-2-yl)-3-pyridyl]piperazin-1-yl]methyl]morpholin-4-yl]pyrazolo[1,5-a]pyridine-7-carbonitrile]: the IC50 is 78 nM.

Take `C[C@@H]1CN(c2ccc(C#N)n3ncc(F)c23)C[C@H](CN2CCN(c3ccc(N4CC5(CN(C)C5)C4)nc3)CC2)O1` [Example 170, 3-fluoro-4-[(2R,6S)-2-methyl-6-[[4-[6-(6-methyl-2,6-diazaspiro[3.3]heptan-2-yl)-3-pyridyl]piperazin-1-yl]methyl]morpholin-4-yl]pyrazolo[1,5-a]pyridine-7-carbonitrile]: the IC50 turned out to be 70 nM.

`C[C@@H]1CN(c2cc(=O)n(C)c3ncccc23)C[C@H](CN2CC(c3ccc(N4CCNCC4)cc3)C2)O1` [Example 171, 1-methyl-4-[(2R,6S)-2-methyl-6-[[3-(4-piperazin-1-ylphenyl)azetidin-1-yl]methyl]morpholin-4-yl]-1,8-naphthyridin-2-one]: the IC50 was 35 nM.

Regarding `C[C@@H]1CN(c2cc(=O)n(C)c3ncccc23)C[C@H](CN2CC(c3ccc(N4CC5(CNCCO5)C4)cc3)C2)O1` [Example 173, 1-methyl-4-[(2R,6S)-2-methyl-6-[[3-[4-(5-oxa-2,8-diazaspiro[3.5]nonan-2-yl)phenyl]azetidin-1-yl]methyl]morpholin-4-yl]-1,8-naphthyridin-2-one], the IC50 turned out to be 60 nM.

With `C[C@@H]1CN(c2ccc(C#N)n3ncc(F)c23)C[C@H](CN2CCN(c3ccc(N4CC[C@@H](N)[C@H](F)C4)nc3)CC2)O1` [Example 175, 4-[(2S,6R)-2-[[4-[6-[(3R,4R)-4-amino-3-fluoro-1-piperidyl]-3-pyridyl]piperazin-1-yl]methyl]-6-methyl-morpholin-4-yl]-3-fluoro-pyrazolo[1,5-a]pyridine-7-carbonitrile], the IC50 stood at 66 nM.

`C[C@@H]1CN(c2cc(=O)n(C)c3ncccc23)C[C@H](CN2CC(c3ccc(N4CC(C)(N)C4)cc3)C2)O1` [Example 176, 4-[(2S,6R)-2-[[3-[4-(3-amino-3-methyl-azetidin-1-yl)phenyl]azetidin-1-yl]methyl]-6-methyl-morpholin-4-yl]-1-methyl-1,8-naphthyridin-2-one]: the IC50 amounted to 101 nM.

In the case of `C[C@@H]1CN(c2ccc(C#N)n3ncc(F)c23)C[C@H](CN2CCN(c3ccc([C@@H]4CNCCO4)cc3)CC2)O1` [Example 177, 3-fluoro-4-[(2R,6S)-2-methyl-6-[[4-[4-[(2R)-morpholin-2-yl]phenyl]piperazin-1-yl]methyl]morpholin-4-yl]pyrazolo[1,5-a]pyridine-7-carbonitrile], the IC50 stood at 98 nM.

As to `C[C@@H]1CN(c2ccc(C#N)n3ncc(F)c23)C[C@H](CN2CCN(c3ccc(N4CCOC5(CNC5)C4)nc3)CC2)O1` [Example 178, 3-fluoro-4-[(2R,6S)-2-methyl-6-[[4-[6-(5-oxa-2,8-diazaspiro[3.5]nonan-8-yl)-3-pyridyl]piperazin-1-yl]methyl]morpholin-4-yl]pyrazolo[1,5-a]pyridine-7-carbonitrile], the IC50 was 116 nM.

Consider `C[C@@H]1CN(c2ccc(C#N)n3ncc(F)c23)C[C@H](CN2CCN(c3ccc(N4CC5(CCN5)C4)nc3)CC2)O1` [Example 179, 4-[(2S,6R)-2-[[4-[6-(1,6-diazaspiro[3.3]heptan-6-yl)-3-pyridyl]piperazin-1-yl]methyl]-6-methyl-morpholin-4-yl]-3-fluoro-pyrazolo[1,5-a]pyridine-7-carbonitrile], for which the IC50 was determined as 157 nM.
